Patent US12653860B2, “Compositions and methods for editing beta-globin for treatment of hemaglobinopathies” (Vertex Pharmaceuticals Incorporated, priority 2019, dated 2026)

How the values were obtained:
[1] = test system: HBB gene in CD34-expressing LT-HSPCs derived from human patients with sickle cell disease; assay: Correction of sickle mutation (E6V to E6) by HDR in SCD patient-derived LT-HSPCs, NGS; type: cell-based; set-up: dose or concentration left out as unconfirmed; conditions: R02 RNP+AAV.323 + i53 mRNA; FIG. 30A, 32B
Text: The AAV-encoded homology donor used for correction is referred to as “AAV.323” and is identified by sequence in Table 8.

[2] = test system: CD34-expressing LT-HSPCs from a human donor with sickle cell disease; assay: Hemoglobin expression (HbS, HbA) by HPLC in edited differentiated patient LT-HSPCs; type: cell-based; conditions: FIG. 32B
Protocol: Hemoglobin expressed by edited cells that were differentiated to erythrocytes was assessed. Hemoglobin A (HbA) is composed of 2 alpha-globin and 2 beta-globin units and is the dominant hemoglobin in adult humans. In human carriers of the HBB E6V mutation, a high proportion of total hemoglobin is hemoglobin S (HbS), which is composed of 2 alpha-globin units and 2 beta-globin units with E6V.
Briefly, on day 18 post-editing, 1×10^6 cells were harvested, centrifuged, and washed with PBS. The cells were prepared for HPLC analysis. Hemoglobin variants were quantified in cell samples using reverse-phase HPLC chromatography and gradient elution. […] Thus, high levels of HDR achieved with i53 contribute to normalization of hemoglobin expression products.

## i53: polypeptide inhibitor of 53BP1 (SEQ ID NO: 70), delivered as mRNA (ORF SEQ ID NO: 69)
[1]
  incorporation of the E6V→E6 gene correction by HDR: 66%
[2]
  decrease in HbS levels relative to mock EP control cells: 90%
